Source: article PMC12977544, “Phenotypic high-throughput screening identifies modulators of gut microbial choline metabolism” (mBio, 2026)
Converted amounts (≈) assume the structure as drawn.

Columns and labels:
E. coli MS 200-1 = test: Growth inhibition of E. coli cultures in choline- and glycerol-containing minimal media; type: cell-based, Escherichia coli MS 200-1; details: for Effect on growth of E. coli MS 200-1 in glycerol medium: glycerol NCE minimal medium
Protocol: To validate the potential hits from the HTS, we tested the 178 compounds for inhibition of growth of E. coli MS 200-1 in glycerol minimal media at 30 µg/mL, following up with those without activity. […]. We then determined EC50 values for inhibition of TMA production from choline by bacterial cultures incubated with [trimethyl-d9]choline in phosphate-buffered saline. Of the 178 compounds tested in both growth and TMA inhibition assays, 20 inhibited TMA generation by E. coli MS 200-1 without growth-inhibitory effects in glycerol minimal medium.
NCE media was adapted based on the “no carbon E” media as previously described ([14]), and contains 29 mM potassium phosphate monobasic, 29 mM potassium phosphate dibasic, 17 mM ammonium sodium phosphate dibasic, 40 mM sodium fumarate dibasic, 0.1% (wt/vol) casamino acids, and either 20 mM choline chloride or 3 g/L glycerol. This mixture was supplemented with 1 mM magnesium sulfate, 1% ATCC vitamin supplement, and 1% ATCC trace mineral supplement.

[1] = tested on: choline-metabolizing gut bacteria (E. coli, P. mirabilis, C. sporogenes, A. hydrogenalis); test: TMA inhibition across the panel of four choline-metabolizing gut bacteria; type: cell-based; details: for EC50: read-out: EC50 values for TMA inhibition across the choline-metabolizing bacteria
Excerpt: We then used secondary assays to prioritize scaffolds that had broad-spectrum TMA inhibitory activity against additional choline-metabolizing gut bacteria. For this, we used Clostridium sporogenes ATCC 15579, a human gut isolate that is able to efficiently ferment choline in addition to other carbon sources, as well as Anaerococcus hydrogenalis DSM 7454 and Proteus mirabilis ATCC 29906, human gut isolates previously identified to metabolize choline in vitro ([61]). In particular, E. coli MS 200-1 and C. sporogenes ATCC 15579 have been used in gnotobiotic studies to investigate the effects of bacterial choline metabolism on the host and microbiome ([46], [61], [62]). These strains are representative of taxa frequently detected in humans ([63]) and, together with E. coli, are representative of the major phyla and genera in which TMA producers have been detected across human gut isolates ([48]). Importantly, this group of strains included both gram-positive and gram-negative bacteria. Gram-negative bacteria have an additional outer membrane layer and associated efflux pumps ([29]), which typically decreases small molecule permeability compared to gram-positive bacteria. It also included bacteria with cut gene cluster architectures that differ in the number and types of microcompartment proteins encoded and in the size of the CutC enzyme ([48]). We hypothesized that testing the inhibitors against multiple choline-utilizing gut bacteria would increase the likelihood of identifying compounds with broad-spectrum activity.
Compounds were stored as 10 mM DMSO stocks at –20°C and diluted in DMSO to prepare varying concentrations of inhibitors for testing. Bacteria were grown anaerobically overnight in media supplemented with choline as described above. Cells were pelleted and resuspended in PBS, and d9-choline chloride was added to a final concentration of 1 mM. The final OD600 of the PBS cell resuspensions is as follows: 0.4 (E. coli), 0.15–0.2 (P. mirabilis), 0.2 (C. sporogenes), and 0.4 (A. hydrogenalis). The resuspended cells were added to 96-well plates containing inhibitors (final concentration of 1% DMSO, with final inhibitor concentrations ranging between 0 and 325 µM). The plates were sealed and incubated for 75 min (or 90 min for P. mirabilis) at 37°C. Following incubation, the plates were removed from the anaerobic chamber and analyzed immediately or kept at –20°C until LC–MS/MS analysis. Each inhibitor concentration was tested in triplicate. EC50 values were calculated with GraphPad Prism by fitting the log(inhibitor) vs response—Variable slope (four-parameter) model for non-linear regression.

[2] = tested on: Bacteroides caccae ATCC 43185; test: MIC in MEGA medium; type: cell-based; details: Bacteroides caccae, ATCC43185; anaerobic, 37°C, 24 h, up to 200 µM; read-out: MIC in MEGA medium, B. caccae
Protocol: (§1) For TMA inhibition assays, E. coli and P. mirabilis were grown in NCE medium supplemented with 20 mM choline chloride, A. hydrogenalis was grown in MEGA medium supplemented with 3 mM choline chloride, and C. sporogenes was grown in BHI medium supplemented with 20 mM of choline chloride to induce expression of the cut gene cluster. For MIC assays, all bacteria strains were grown in MEGA medium.

[3] = tested on: Clostridium sporogenes ATCC 15579; test: MIC in MEGA medium; type: cell-based; details: Clostridium sporogenes, ATCC15579; anaerobic, 37°C, 24 h, up to 200 µM
Protocol: as §1

[4] = tested on: Collinsella aerofaciens ATCC 25986; test: MIC in MEGA medium; type: cell-based; details: Collinsella aerofaciens, ATCC25986; anaerobic, 37°C, 24 h, up to 200 µM
Protocol: as §1

[5] = tested on: Proteus mirabilis ATCC 29906; test: MIC in MEGA medium; type: cell-based; details: Proteus mirabilis, ATCC29906; anaerobic, 37°C, 24 h, up to 200 µM; read-out: MIC in MEGA medium, P. mirabilis
Protocol: as §1

[6] = tested on: Bacteroides thetaiotaomicron VPI-5482; test: MIC in MEGA medium; type: cell-based; details: Bacteroides thetaiotaomicron, VPI5482; anaerobic, 37°C, 24 h, up to 200 µM; read-out: MIC in MEGA medium, B. thetaiotaomicron
Protocol: as §1

[7] = tested on: Eubacterium rectale ATCC 33656; test: MIC in MEGA medium; type: cell-based; details: Agathobacter rectalis, ATCC33656; anaerobic, 37°C, 24 h, up to 200 µM; read-out: MIC in MEGA medium, E. rectale
Protocol: as §1

[8] = tested on: Bacteroides ovatus ATCC 8483; test: MIC in MEGA medium; type: cell-based; details: Bacteroides ovatus, ATCC8483; anaerobic, 37°C, 24 h, up to 200 µM; read-out: MIC in MEGA medium, B. ovatus
Protocol: as §1

[9] = tested on: Anaerococcus hydrogenalis DSM 7454; test: MIC in MEGA medium; type: cell-based; details: Anaerococcus hydrogenalis, DSM7454; anaerobic, 37°C, 24 h, up to 200 µM
Protocol: as §1

SMILES | Effect on growth of E. coli MS 200-1 in glycerol medium (E. coli MS 200-1) | EC50 [1] [µM] | MIC [2] [µM] | MIC [3] [µM] | MIC [4] [µM] | MIC [5] [µM] | MIC [6] [µM] | MIC [7] [µM] | MIC [8] [µM] | MIC [9] [µM] | Inhibition of E. coli growth on choline (E. coli MS 200-1; choline minimal medium, 7 h, 6: 125–500 µM, 42: 30–100 µM) | Fold more potent than 6 across the panel of bacteria ([1]; compared with compound 6) | Reduction of conversion of choline to TMA by bacteria in vitro ([1]; in vitro) [%]
Cc1ccc(-c2cc(C(=O)NCCCN3CCc4ccccc4C3)c(C)[nH]2)cc1C [Compound 5] | no impact on growth | 12 to 33 | – | – | – | – | – | – | – | – | – | – | –
Cc1ccc(-c2cc(C(=O)NCCCN3CCC(C)CC3)c(C)[nH]2)cc1C [Compound 6] | not observed in glycerol | – | > 200 | > 200 | > 200 | > 200 | > 200 | 200 (≈ 73.5 µg/mL) | > 200 | 200 (≈ 73.5 µg/mL) | dose-dependent | – | –
Cc1ccc(-c2cc(C(=O)NCCCCCN3CCCCCC3)c(C)[nH]2)cc1C [Compound 45] | – | 2 to 18 | > 200 | > 200 | > 200 | > 200 | > 200 | > 200 | > 200 | > 200 | – | 2–10 fold | > 80
